What was measured:
A/J mice [1] = experiment: Murine model of asthma with 4 weekly OVA provocations (days 14, 21, 28, 35), interventional treatment; type: in vivo; conditions: LASSBio-448 100 mg/Kg oral
Experimental: Sensitization was performed by means of a subcutaneous injection of 50 μg ovalbumin (OVA) (grade V; Sigma-Aldrich, St. Louis, MO) adsorbed to 5 mg of Al(OH)3 in 0.2 mL of sterile 0.9% NaCl (saline) at days 0 and 14. Intranasal OVA provocations (25 μg /25 μL saline) were performed at 19 and 20 days post-sensitization under isofluorane volatile anaesthesia (Cristalia, São Paulo, Brazil). Alternatively, sensitization as described above were done at days 0 and 7, while the OVA provocations were carried out at days 14, 21, 28 and 35 [39]. Negative control groups were represented by sensitized mice in which allergen was replaced by saline as a challenge. Treatments were done orally 1 h before provocations. Test compounds were dissolved in saline containing 0.2% Tween 80. All solutions were freshly prepared immediately before use. Analyses were performed 24 h after the last provocation.
(§1) Airflow and transpulmonary pressure were recorded with a Buxco pulmonary mechanics processing system (Buxco Electronics, Sharon, CT), which calculated resistance (cmH2O.s/ml) and dynamic lung compliance (mL/cmH2O) in each breath cycle. Elastance was calculated as the inverse of compliance values. Mice were anesthetized with nembutal (60 mg/kg), and the neuromuscular activity was blocked with bromide pancuronium (1 mg/kg). Animals were allowed to stabilize for 5 min and increasing concentrations of methacholine (3–27 mg/mL) were aerosolized for 5 min each. Baseline pulmonary parameters were assessed with aerosolized phosphate buffer solution (PBS).
The EPO activity present in lung tissue was determined with a colorimetric assay as described by Strath et al. (1985), with minor modifications. Briefly, the lungs were cannulated and perfused with saline/EDTA (20 mM). Then, lung samples were homogenized in buffer solution containing 0.5% HBSS (Hank´s balanced solution, pH 7.4; Sigma Chemical Co.) using a tissue homogenizer (T25 ultra-Tirrax). Samples were centrifuged at 1300 xg for 10 min at 4°C. Red blood cells were removed by hypotonic and hypertonic lysis. The suspended cells were then centrifuged again at 1300 xg for 10 min at 4°C. The pellet was then suspended in a solution of HBSS containing 0.5% of HTAB (hexadecyltrimethylamonium bromide; Sigma Chemical Co.) (pH 7.4). This suspension was subjected to heat shock for lysing the cells in three cycles freeze/thawed. At the end, the supernatants were collected, centrifuged at 12000 rpm for 15 min at 4°C and assayed spectrophotometrically for EPO determination. Fifty μl of the samples were placed, and then 50 μl of the substrate (1.5 mM o-phenylenediamine and 6.6 mM hydrogen peroxide in 0.05 mM Tris-HCl buffer, pH 8.0) was added and, after a 30 min incubation at room temperature, 50 μl of H2SO4 (4M) was added to stop the reaction. The optical density reading was performed on the SpectraMax M5 spectrophotometer (Molecular Devices) at a wavelength of 492 nm.
Right lungs tissue samples from saline- and OVA-exposed mice were homogenized in PBS containing 0.05% Triton X-100 and a protease inhibitor cocktail (Complete®, Hoffmann-La Roche Ltd, Basel, Switzerland). After centrifugation at 13000xg for 10 min and 4°C, the levels of IL-13, IL-5, IL-4 and eotaxin-2 were quantified in the supernatant, using commercially available ELISA kits (DuoSet; R&D Systems, Minneapolis, MN, USA). The results were expressed as picograms of cytokine per right lung.

A/J mice [2] = experiment: Duration of xylazine/ketamine anesthesia (behavioral correlate of emesis); type: in vivo
Experimental: This assessment was carried out as previously reported. […] The animals were placed in dorsal position and their spontaneous return to the prone position was used as an endpoint to determine anesthesia duration.

PDE3 = PDE3 activity inhibition; type: biochemical
A/J mice [3] = experiment: LPS-induced lung inflammation and airway hyper-reactivity; type: in vivo; conditions: LASSBio-448 2.5 and 10 mg/kg oral, cilomilast 1 mg/kg oral, 1 h before LPS, 24 h post-challenge
Experimental: A/J mice were anesthetized with isoflurane aerosol and then challenged with LPS (25μg/25 μL) or phosphate buffered solution (PBS) by intranasal instillation as reported. The analyses were performed 24 h after stimulation. Treatment with LASSBio-448 (2.5–10 mg/kg/mice) or cilomilast (1 mg/kg) was performed orally, 1 h before LPS exposure. LASSBio-448 was dissolved in 0.2% Tween 80, while cilomilast was dissolved in 1 M NaOH and further neutralized with 1 N HCl, before adjusting the final volume with 0.9% NaCl solution (saline). The substances were dissolved immediately before use.
as §1
The MPO activity present in the lung tissue was colorimetrically determined as described by Hirano (1996), with minor changes. Briefly, after lung perfusion with 20 mM EDTA in 0.9% saline, lung samples were homogenized in Hank´s balanced solution (HBSS) at pH 7.4. The homogenates were centrifuged for 10 min at 1300 xg and 4°C. Red blood cells were removed by hypotonic and hypertonic lysis and suspended cells were re-centrifuged as described above. The pellet was then suspended in HBSS at pH 7.4 containing 0.5% hexadecyltrimethyl ammonium bromide (HTAB). The homogenates were centrifuged for 30 min at 12500 xg and 4°C. The supernatants were then collected and incubated with 0.167 mg/mL of ortho-dianisidine dihydrochloride for 15 min at 37°C, after which 0.0006% H2O2 in 50 mM phosphate buffer at pH 6 was added. The reaction was stopped 10 min later by adding 50 μL of 1% sodium azide. The measurement was done at 460 nm using the SpectraMax M5 microplate reader (Molecular Devices).

[4] = rolipram 10 mg/Kg oral, right lung, 24 h after last challenge, vs vehicle, Fig 8

## COc1ccc(C2CNC(=O)C2)cc1OC1CCCC1 (centres unmarked) [1 (Rolipram), rolipram, reference compound]
A/J mice [1]; rolipram 10 mg/Kg oral, Fig 7A
  airway hyper-reactivity to methacholine, airway resistance: equally effective in inhibiting
A/J mice [1]; rolipram 10 mg/Kg oral, Fig 7B
  airway hyper-reactivity to methacholine, lung elastance: equally effective in inhibiting
A/J mice [1]; [4]
  IL-4 level in lung tissue: reduction in the levels
  IL-5 level in lung tissue: reduction in the levels
  IL-13 level in lung tissue: reduction in the levels
  eotaxin-2 level in lung tissue: reduction in the levels
A/J mice [1]; rolipram 10 mg/kg oral, at third and fourth weeks of challenge, Fig 5
  allergen-induced eosinophil accumulation in the lung tissue (eosinophil peroxidase): impair the progress
A/J mice [2]; 3.5 μmol/Kg oral
  reduction of sleep time (duration of xylazine/ketamine anesthesia): 30%
A/J mice [2]; 11 μmol/Kg oral
  reduction of sleep time (duration of xylazine/ketamine anesthesia): 38.5%
A/J mice [2]; 36 μmol/Kg oral
  reduction of sleep time (duration of xylazine/ketamine anesthesia): 40.8%

## Cc1[nH]c(=O)c(C#N)cc1-c1ccncc1 [milrinone, reference compound]
PDE3
  IC50: 3.2 µM

## COc1ccc([C@]2(C#N)CC[C@@H](C(=O)O)CC2)cc1OC1CCCC1 [cilomilast, reference compound]
A/J mice [3]; Fig 9A
  LPS-induced airway hyper-reactivity (lung elastance after methacholine 3–27 mg/ml): blockade
A/J mice [3]; Fig 9B
  neutrophil infiltration into the lung tissue (MPO activity): blockade
A/J mice [2]; 5.8 μmol/kg oral, n = 5, P<0.01
  reduction of sleep time (duration of xylazine/ketamine anesthesia): 28.4%
